Assay results published in US20250243180A1, “TARGETED PROTEIN DEGRADATION” (Monte Rosa Therapeutics AG, priority 2023, published 2025).
pIC50: −log10 of the molar value.

Legend:
Caspase-1 activity = Caspase-1 activity in human monocyte-derived macrophages, LPS/MSU stimulation; assay type: cell-based
Protocol: Human monocytes were enriched and isolated from a buffy coat of whole blood with a RosetteSep™ Human Monocyte Enrichment Cocktail (Cat.No. 15068, StemCell) and Ficoll-Plaque PLUS (Cat.No. H8889, Sigma). Monocytes were differentiated into macrophages by treatment with 100 ng/mL M-CSF for 6 days at 37° C., 5% CO2. Differentiated macrophages were seeded overnight (50,000 cells/well) in 100 μL of medium in a 96-well white-bottom plate at 37° C., 5% CO2. Cells were treated with a concentration range of MGD or the NLRP3 inhibitor selnoflast (Cat.No. HY-132831, MedChemExpress) for 24 h prior to stimulation with monosodium urate crystals (MSU). Macrophages were stimulated with […] lipopolysaccharide (LPS) and 0.2 mg/mL MSU for 6 h. Medium of stimulated macrophages were collected and assayed for caspase-1 activity directly (Promega G9951) as well as IL-1β (Promega W6010), according to manufacturer's instructions.
(a, b) Human monocyte-derived macrophages pre-treated with a dose-response of Compound 14 or selnoflast (NLRP3 inhibitor) for 24 h and stimulated with a combination of lipopolysaccharide (LPS) and monosodium urate crystals (MSU) for 6 h prior to supernatant collection. Monocytes were isolated from eight human donors. Caspase-1 (a) and IL-1β (b) in the supernatant are measured and data are expressed as percentage relative to mean values of DMSO conditions for each donor (technical triplicates). Means of eight donors are plotted and analyzed using a four-parameter logistic regression model.

NEK7 = NEK7 level in PBMC of NHP after oral dosing; assay type: in vivo, cynomolgus monkeys; conditions: oral 5 mg/kg for 5 days
Protocol: Non-naïve male and female non-human primate (NHP) cynomolgus monkeys were orally administered with 5 consecutive daily doses of Compound 14 at 5 mg/kg, n=2 per dose group, 1 male and 1 female. Compound formulation was prepared on the day of administration in 0.5% methyl cellulose (4000 cps) in water and animals were fasted overnight. Plasma collected post dose were analyzed using a non GLP LC/MS/MS bioanalytical method to evaluate the compound concentration. Whole blood collected post dose were processed to PBMC and were analyzed using western blot method. Plasma pharmacokinetics and PMBC pharmacodynamics were assessed longitudinally throughout dosing and following dosing cessation.
In Table 8 compound 14 induces NEK7 degradation in vivo. NEK7 protein levels were assessed in PBMC isolated from NHP after oral administration for 5 consecutive days of Compound 14 at 5 mg/kg, n=2 per dose group. NEK7 levels were normalized to β-actin, as determined by JESS, at the indicated time points. NEK7 level at pre dose was normalized to 100%. Days 10 and 15 correspond to recovery period, 5 or 10 days after drug administration, respectively.

IL-1β = experiment: Ex vivo whole blood stimulation (LPS/nigericin) IL-1β ELISA after dosing of NHP; assay type: in vivo, cynomolgus monkeys; conditions: oral 5 mg/kg for 5 days
Protocol: Within 0.5 h of blood collection from animals that received vehicle or Compound 14 at 5 mg/kg, whole blood was aliquoted into two 0.25 mL aliquots. One aliquot was used as baseline, and the other as the ex vivo stimulated condition. For stimulation, whole blood was incubated with 100 ng/mL Lipopolysaccharide from Escherichia coli 0111:B4 (LPS-EB) for 3 h, followed by 10 μM nigericin for 2 h. Plasma was then isolated and concentrations of IL-1β in plasma isolated from ex vivo whole blood stimulation were measured using the IL-1β ELISA R&D Systems kit (Cat. #DY1318), with 50 μL per sample diluted with 50 μL reagent diluent/well. After reading absorbance on plate reader, standard curve and sample IL-1β levels were analyzed using 4PL method. […]
In Table 9, suppression of ex vivo inflammasome activation following degradation of NEK7 in NHP is reported. Whole blood was isolated at the indicated time points from NHP dosed orally 5 mg/kg of Compound 14 over 5 days (day 1 through 5), n=2. Days 10 and 15 correspond to recovery period, 5 or 10 days after drug administration, respectively. Whole blood was stimulated ex vivo with 100 ng/mL LPS for 3 h and 10 μM nigericin for 2 h. Plasma was isolated and IL-1β was measured by ELISA. […]

[1] = Plasma pharmacokinetics in NHP, 30 mg/kg oral for 7 days; assay type: in vivo; conditions: oral 30 mg/kg daily for 7 days, average male and female
Protocol: Naïve NHP were orally administered with 7 consecutive daily dose of Compound 14 at 30 mg/kg, n=4 per dose group, 2 male and 2 female. Compound formulation was prepared on the day of administration in 0.5% methyl cellulose (4000 cps) in water and animals were fed twice a day; water was available ad libitum. Plasma collected posted dose on Day 1 and Day 7 were analyzed using a non GLP LC/MS/MS bioanalytical method to evaluate the compound concentration. Brain samples were harvested 24 h after final dose. Lysates for different brain regions (hippocampus, frontal cortex, and cerebellum) were prepared in M-PER lysis buffer and diluted at total protein concentration of 0.4 mg/mL in 0.1× sample buffer (12-230 kDa detection module; Protein Simple). The anti-NEK7 rabbit mAb (Abcam #AB133514) was used at 1:100 and anti-β-actin rabbit mAb (CST #5125) was used at 1:500. Samples were probed for NEK7 and β-actin protein levels by JESS, and quantified relative to vehicle control.
In Table 10, concentration of Compound 14 in NHP plasma following administration via oral gavage after 7 days post dose at 30 mg/kg is reported. NHP received daily oral administration of 30 mg/kg of Compound 14 for 7 days, n=2.

[2] = both sexes, monkey, plasma, po, 30 mg/kg
[3] = both sexes, non-human primate (NHP)

Cc1cnc(C(C)(C)C(=O)NCc2cc(Cl)c(C3CCC(=O)NC3=O)c(Cl)c2)nc1 (stereo not shown) [Compound 14, N-(3,5-dichloro-4-(2,6-dioxopiperidin-3-yl)benzyl)-2-methyl-2-(5-methylpyrimidin-2-yl)-propanamide]
Caspase-1 activity Imax (Caspase-1 activity; 24 h pre-treatment, LPS + MSU 6 h, eight donors): 81%
pIC50 (Caspase-1 activity; Homo sapiens, Macrophage, 24 h pre-treatment, LPS + MSU 6 h, eight donors): 8.80
inhibition of NLRP3-driven activation of human macrophages (Caspase-1 activity; LPS/MSU stimulation): dose-dependent inhibition
Average percent NEK7/β-actin in PBMC, relative to predose (NEK7; Day 1, 6 h): 56%
Average percent NEK7/β-actin in PBMC, relative to predose (NEK7; Day 1, 24 h): 44%
Average percent NEK7/β-actin in PBMC, relative to predose (NEK7; Day 5, 6 h): 27%
Average percent NEK7/β-actin in PBMC, relative to predose (NEK7; Day 5, 24 h): 15%
Average percent NEK7/β-actin in PBMC, relative to predose (NEK7; Day 10, 24 h (recovery)): 45%
Average percent NEK7/β-actin in PBMC, relative to predose (NEK7; Day 15, 24 h (recovery)): 141%
Percent IL-1β relative to predose (IL-1β; Day 1, 6 h): 1%
Percent IL-1β relative to predose (IL-1β; Day 1, 24 h): 45%
Percent IL-1β relative to predose (IL-1β; Day 5, 6 h): 0%
Percent IL-1β relative to predose (IL-1β; Day 5, 24 h): 78%
Percent IL-1β relative to predose (IL-1β; Day 10, 24 h (recovery)): 91.5%
Percent IL-1β relative to predose (IL-1β; Day 15, 24 h (recovery)): 141%
Cmax ([1]; both sexes, monkey): 6600 ng/mL
Tmax ([1]; both sexes, monkey): 1.75 h
AUC0-24h [1, 2]: 36600 ng·h/mL
AUC(0-t) [1, 2]: 27200 ng·h/mL
Cmax [1, 3]: 6600 ng/mL
Tmax [1, 3]: 1.75 h
tlast [1]: 8 h
